Consider 68 sequences from the supplement of paper PMC11208160.
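Also: IS621 bridge recombinase in Escherichia coli cells against a fixed T5 target plasmid.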

The series in a line: recombinant UMI read abundance after kanamycin selection (control-corrected) (log10(CPM+1)); higher = more efficient recombination; extreme values may be limits of the assay; sequences stand for … in AGTGCAGAGAAAATCGGCCAGTTTTCTCTGCCTGCAGTCCGCATGCCGTGGGACCCCTTGGGTTCTAACCTGTTGCCTAGATTTATGCAGCGGACTGCCTTTCTCCCAAAGTGATAAACCGG…AGGTTGGTTTCACT; site = the 11-nt donor. The method, boiled down:
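Under IPTG (0.07 mM) plus kanamycin, or without selection, Escherichia coli carrying a UMI-tagged donor and donor-binding-loop pair library and a target plasmid for the IS621 bridge recombinase were plated in two replicates. Recombinant UMIs were PCR-amplified across the donor–target junction and sequenced. Counts were converted to CPM, averaged over replicates, scaled by control-derived factors and reported as log10(CPM+1).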
Regarding “CTAGCATCATGGACCGGTTTTCCCGGTAATCCGTATTTGAA (site CTAGCATCTTT)”, the “recombinant UMI read abundance (log10)” value was 2.86.

For “CTAGCATCATGGACCGGTTTTCCCGGTAATCCGTATTTGAA (site CTAGTATCTGT)”, the “recombinant UMI read abundance (log10)” value was found to be 0.

Consider “CTAGCGTCATGGACCGGTTTTCCCGGTAATCCGTATTTGGA (site CTAGCGTCTTC)”, for which the “recombinant UMI read abundance (log10)” value was found to be 2.45.

For “CTAGGCACATGGACCGGTTTTCCCGGTAATCCGTATTTGCA (site CTAGGCACTTG)”, the “recombinant UMI read abundance (log10)” value worked out at 1.67.

Consider “CTAGGGGCATGGACCGGTTTTCCCGGTAATCCGTATTTGTG (site CTAGGGGCTCA)”, for which the “recombinant UMI read abundance (log10)” value amounted to 1.23.

Turning to “CTAGTAACATGGACCGGTTTTCCCGGTAATCCGTATTTGGA (site CTAATAACTTC)”, the “recombinant UMI read abundance (log10)” value worked out at 1.33.

Turning to “CTAGTAACATGGACCGGTTTTCCCGGTAATCCGTATTTGGA (site CTACTAACTTC)”, the “recombinant UMI read abundance (log10)” value worked out at 0.119.

As for “CTAGTAACATGGACCGGTTTTCCCGGTAATCCGTATTTGGA (site CTAGTAACTTC)”, the “recombinant UMI read abundance (log10)” value came out at 1.98.

Consider “CTAGTAACATGGACCGGTTTTCCCGGTAATCCGTATTTGGA (site CTATTAACTTC)”, for which the “recombinant UMI read abundance (log10)” value came to 0.00934.

Regarding “CTAGTACCATGGACCGGTTTTCCCGGTAATCCGTATTTGAT (site CTAGTACCTAT)”, the “recombinant UMI read abundance (log10)” value worked out at 0.

For the sequence “CTAGTACCATGGACCGGTTTTCCCGGTAATCCGTATTTGAT (site CTAGTATCTGT)”, the “recombinant UMI read abundance (log10)” value was determined as 1.35.

Regarding “CTAGTAGCATGGACCGGTTTTCCCGGTAATCCGTATTTGCC (site CTAGTAGCTGG)”, the “recombinant UMI read abundance (log10)” value stood at 1.64.

Consider “CTAGTAGCATGGACCGGTTTTCCCGGTAATCCGTATTTGCC (site CTAGTATCTGT)”, for which the “recombinant UMI read abundance (log10)” value turned out to be 0.

For “CTAGTATCATGGACCGGTTTTCCCGGTAATCCGTATTTGCC (site CTAGTATCTGA)”, the “recombinant UMI read abundance (log10)” value worked out at 2.78.

As to “CTAGTATCATGGACCGGTTTTCCCGGTAATCCGTATTTGCC (site CTAGTATCTGC)”, the “recombinant UMI read abundance (log10)” value is 2.28.

For the sequence “CTAGTATCATGGACCGGTTTTCCCGGTAATCCGTATTTGCC (site CTAGTATCTGG)”, the “recombinant UMI read abundance (log10)” value came to 3.09.

As for “CTAGTATCATGGACCGGTTTTCCCGGTAATCCGTATTTGCC (site CTAGTATCTGT)”, the “recombinant UMI read abundance (log10)” value stood at 2.66.

With “CTAGTGTCATGGACCGGTTTTCCCGGTAATCCGTATTTGAT (site CTAGTATCTGT)”, the “recombinant UMI read abundance (log10)” value worked out at 1.55.

Consider “CTAGTGTCATGGACCGGTTTTCCCGGTAATCCGTATTTGAT (site CTAGTGTCTAT)”, for which the “recombinant UMI read abundance (log10)” value came to 2.25.

As for “CTAGTGTCATGGACCGGTTTTCCCGGTAATCCGTATTTGGC (site CTAGTATCTGT)”, the “recombinant UMI read abundance (log10)” value is 1.29.

“CTAGTGTCATGGACCGGTTTTCCCGGTAATCCGTATTTGGC (site CTAGTGTCTGC)”: the “recombinant UMI read abundance (log10)” value came to 2.17.

As to “CTAGTGTCATGGACCGGTTTTCCCGGTAATCCGTATTTGGT (site CTAGTGTCTAC)”, the “recombinant UMI read abundance (log10)” value stood at 2.6.

Consider “CTATACACATGGACCGGTTTTCCCGGTAATCCGTATTTGCT (site CTATACACTAG)”, for which the “recombinant UMI read abundance (log10)” value is 2.38.

With “CTATACACATGGACCGGTTTTCCCGGTAATCCGTATTTGCT (site CTCTACACTAG)”, the “recombinant UMI read abundance (log10)” value turned out to be 1.53.

On to “CTATACACATGGACCGGTTTTCCCGGTAATCCGTATTTGCT (site CTGTACACTAG)”, for which the “recombinant UMI read abundance (log10)” value was 0.705.

Regarding “CTATACACATGGACCGGTTTTCCCGGTAATCCGTATTTGCT (site CTTTACACTAG)”, the “recombinant UMI read abundance (log10)” value is 0.92.

As for “CTATACTCATGGACCGGTTTTCCCGGTAATCCGTATTTGTT (site CTATACTCTAA)”, the “recombinant UMI read abundance (log10)” value came out at 3.11.

For “CTATATACATGGACCGGTTTTCCCGGTAATCCGTATTTGAC (site CTATATACTGT)”, the “recombinant UMI read abundance (log10)” value was 3.02.

As to “CTATCAACATGGACCGGTTTTCCCGGTAATCCGTATTTGCT (site CGATCATCTAG)”, the “recombinant UMI read abundance (log10)” value turned out to be 0.00622.

“CTATCAACATGGACCGGTTTTCCCGGTAATCCGTATTTGCT (site CTATCAACTAG)”: the “recombinant UMI read abundance (log10)” value was 1.92.

With “CTATCATCATGGACCGGTTTTCCCGGTAATCCGTATTTGGT (site CGATCATCTAG)”, the “recombinant UMI read abundance (log10)” value amounted to 0.

With “CTATCATCATGGACCGGTTTTCCCGGTAATCCGTATTTGGT (site CTATCATCTAC)”, the “recombinant UMI read abundance (log10)” value came out at 0.706.

With “CTATCCTCATGGACCGGTTTTCCCGGTAATCCGTATTTGAA (site CTATCCTCTTT)”, the “recombinant UMI read abundance (log10)” value came to 2.6.

With “CTATTCCCATGGACCGGTTTTCCCGGTAATCCGTATTTGCT (site CAATTCCCTAG)”, the “recombinant UMI read abundance (log10)” value amounted to 0.77.

As to “CTATTCCCATGGACCGGTTTTCCCGGTAATCCGTATTTGCT (site CCATTCCCTAG)”, the “recombinant UMI read abundance (log10)” value was determined as 1.43.

With “CTATTCCCATGGACCGGTTTTCCCGGTAATCCGTATTTGCT (site CGATTCCCTAG)”, the “recombinant UMI read abundance (log10)” value was found to be 0.475.

For “CTATTCCCATGGACCGGTTTTCCCGGTAATCCGTATTTGCT (site CTATTCCCTAG)”, the “recombinant UMI read abundance (log10)” value was found to be 0.845.

Turning to “CTCAACACATGGACCGGTTTTCCCGGTAATCCGTATTTGCT (site CTCAACACTAG)”, the “recombinant UMI read abundance (log10)” value amounted to 2.

As for “CTCAACACATGGACCGGTTTTCCCGGTAATCCGTATTTGCT (site CTCCACACTAG)”, the “recombinant UMI read abundance (log10)” value was determined as 0.438.

With “CTCAACACATGGACCGGTTTTCCCGGTAATCCGTATTTGCT (site CTCGACACTAG)”, the “recombinant UMI read abundance (log10)” value was 0.368.

On to “CTCAACACATGGACCGGTTTTCCCGGTAATCCGTATTTGCT (site CTCTACACTAG)”, for which the “recombinant UMI read abundance (log10)” value worked out at 1.23.

As to “CTCAAGCCATGGACCGGTTTTCCCGGTAATCCGTATTTGAG (site CTCAAGCCTCT)”, the “recombinant UMI read abundance (log10)” value was 0.

For the sequence “CTCAGAACATGGACCGGTTTTCCCGGTAATCCGTATTTGCC (site CTCAGAACTGG)”, the “recombinant UMI read abundance (log10)” value was found to be 1.47.

Regarding “CTCAGACCATGGACCGGTTTTCCCGGTAATCCGTATTTGCG (site CTCAGACCTCG)”, the “recombinant UMI read abundance (log10)” value came out at 0.

For “CTCAGGACATGGACCGGTTTTCCCGGTAATCCGTATTTGAG (site CTCAGGACTCT)”, the “recombinant UMI read abundance (log10)” value was determined as 0.

In the case of “CTCCACACATGGACCGGTTTTCCCGGTAATCCGTATTTGCT (site CTCAACACTAG)”, the “recombinant UMI read abundance (log10)” value was determined as 0.

On to “CTCCACACATGGACCGGTTTTCCCGGTAATCCGTATTTGCT (site CTCCACACTAG)”, for which the “recombinant UMI read abundance (log10)” value is 2.08.

Regarding “CTCCACACATGGACCGGTTTTCCCGGTAATCCGTATTTGCT (site CTCGACACTAG)”, the “recombinant UMI read abundance (log10)” value turned out to be 0.

For the sequence “CTCCACACATGGACCGGTTTTCCCGGTAATCCGTATTTGCT (site CTCTACACTAG)”, the “recombinant UMI read abundance (log10)” value came to 1.54.

Consider “CTCCACGCATGGACCGGTTTTCCCGGTAATCCGTATTTGTT (site CTCCACGCTAA)”, for which the “recombinant UMI read abundance (log10)” value is 1.57.

“CTCCCGACATGGACCGGTTTTCCCGGTAATCCGTATTTGGA (site CTCCCGACTTC)”: the “recombinant UMI read abundance (log10)” value came out at 0.231.

Turning to “CTCCCTACATGGACCGGTTTTCCCGGTAATCCGTATTTGTG (site CTCCCTACTCA)”, the “recombinant UMI read abundance (log10)” value was 0.525.

As to “CTCCCTACATGGACCGGTTTTCCCGGTAATCCGTATTTGTG (site CTCCCTACTCC)”, the “recombinant UMI read abundance (log10)” value is 0.617.

As to “CTCCCTACATGGACCGGTTTTCCCGGTAATCCGTATTTGTG (site CTCCCTACTCG)”, the “recombinant UMI read abundance (log10)” value turned out to be 0.143.

“CTCCCTACATGGACCGGTTTTCCCGGTAATCCGTATTTGTG (site CTCCCTACTCT)”: the “recombinant UMI read abundance (log10)” value came out at 0.00616.

Turning to “CTCCGTACATGGACCGGTTTTCCCGGTAATCCGTATTTGCT (site CACCGTACTAG)”, the “recombinant UMI read abundance (log10)” value is 1.41.

In the case of “CTCCGTACATGGACCGGTTTTCCCGGTAATCCGTATTTGCT (site CCCCGTACTAG)”, the “recombinant UMI read abundance (log10)” value came out at 1.28.

Regarding “CTCCGTACATGGACCGGTTTTCCCGGTAATCCGTATTTGCT (site CGCCGTACTAG)”, the “recombinant UMI read abundance (log10)” value stood at 0.00286.

As for “CTCCGTACATGGACCGGTTTTCCCGGTAATCCGTATTTGCT (site CTCCGTACTAG)”, the “recombinant UMI read abundance (log10)” value stood at 1.45.

For the sequence “CTCCTGTCATGGACCGGTTTTCCCGGTAATCCGTATTTGAC (site CTCCTGTCTGT)”, the “recombinant UMI read abundance (log10)” value came to 0.

With “CTCGCGGCATGGACCGGTTTTCCCGGTAATCCGTATTTGCC (site CTCGCGGCTGG)”, the “recombinant UMI read abundance (log10)” value came out at 0.

As for “CTCGCTACATGGACCGGTTTTCCCGGTAATCCGTATTTGCA (site CTCGCTACTTG)”, the “recombinant UMI read abundance (log10)” value was found to be 2.41.

In the case of “CTCGCTCCATGGACCGGTTTTCCCGGTAATCCGTATTTGAG (site CTCGCTCCTCT)”, the “recombinant UMI read abundance (log10)” value was 0.0649.

On to “CTCGTAACATGGACCGGTTTTCCCGGTAATCCGTATTTGAC (site CTAGTATCTGT)”, for which the “recombinant UMI read abundance (log10)” value was 0.0113.

For the sequence “CTCGTAACATGGACCGGTTTTCCCGGTAATCCGTATTTGAC (site CTCGTAACTGT)”, the “recombinant UMI read abundance (log10)” value was 2.56.

For “CTCGTATCATGGACCGGTTTTCCCGGTAATCCGTATTTGAC (site CTAGTATCTGT)”, the “recombinant UMI read abundance (log10)” value is 0.00452.

Consider “CTCGTATCATGGACCGGTTTTCCCGGTAATCCGTATTTGAC (site CTCGTATCTGT)”, for which the “recombinant UMI read abundance (log10)” value is 2.6.

With “CTCGTATCATGGACCGGTTTTCCCGGTAATCCGTATTTGAC (site CTGGTATCTGT)”, the “recombinant UMI read abundance (log10)” value was 0.
